US8034574B2, “Screening method for prokinetic agent” (Astellas Pharma Inc., priority 2006, dated 2011)
Entries after “also recorded” stand apart in the source; their conditions may differ.

Tests used:
guinea pig ileum = assay: Isolated guinea pig gut constriction (Magnus, ileum)
Protocol: Guinea pigs (Hartley strain, male, weighing 300-400 g), under ether anesthesia, were exsanguinated to death by cutting the carotid artery. The ileum was extirpated, about 15-cm portions at both ends were removed, a section 1.5 cm long was cut out from the remaining portion, and incisions were made longitudinally parallelly in the gut to prepare a tabular specimen. This specimen was sandwiched with serrefine at both ends, and suspended with a thread in a Magnus chamber containing 10 ml of a 37° C. Krebs solution (118 mM NaCl, 4.7 mM KCl, 2.5 mM CaCl2, 1.2 mM MgSO4, 1.2 mM KH2PO4, 11 mM D-glucose, 20 mM NaHCO3) aerated with 95% O2-5% CO2 mixed gas. A 1-g load was applied to the specimen, buffers were exchanged at 15-minute intervals, and the specimen was allowed to stand for about 60 minutes to stabilize its tension. Changes in the tension in response to agonist stimulation were measured isometrically, and recorded on a recorder. Acetylcholine, 10^−5 M, was administered to induce contraction of the ileum specimen; after the contraction maximized, the bath was washed three times to purge out the acetylcholine. This operation was repeated at 10-minute intervals, and after the induced contraction stabilized two consecutive times, each test substance was administered. By comparing the contractile forces produced by acetylcholine and the test substance, the effect of the test substance was evaluated. One specimen was investigated only at one concentration of the test substance. […] From the results above, it was shown that the TRPA1 activator induced gut contraction.
The serotonin receptor antagonists used were pizotifen maleate (10 μM), a 5-HT1,2 receptor antagonist, ketanserin tartrate (0.1 μM), a 5-HT2 receptor antagonist, ramosetron hydrochloride (0.3 μM), a 5-HT3 receptor antagonist, and GR113808 (0.3 μM), a 5-HT4 receptor antagonist.
The inhibitory actions of various serotonin receptor antagonists on contraction upon stimulation with acrolein (300 μM) were investigated in the same manner. […] From the results above, it was shown that serotonin was released upon stimulation with acrolein to induce contraction via serotonin receptors such as 5-HT1 receptor and 5-HT3 receptor.

[1] = molecular target: T1, human TRPA1 (polypeptide of SEQ ID NO:2) (Homo sapiens, UniProt O75762, K186N/R3C/R58T); assay: Intracellular calcium by FLIPR in CHO-K1 cells expressing human TRPA1 (activator screening); format: cell-based; settings: CHO-K1 cells expressing human TRPA1; FLIPR, Fluo3-AM
T1 construct: expressed in transfected cells; host or cells: CHO-K1 cells, transient transfection of the pcDNA3.1(+) human TRPA1 vector
Protocol: To detect the TRPA1 channel activity of a polypeptide consisting of the amino acid sequence shown by SEQ ID NO:2, the expression vector obtained in Example 1 above was transfected to animal cells, whereby the aforementioned protein was expressed.
Various test samples were added to CHO-K1 cells forced to is transiently express TRPA1 by the transfection operation of Example 2 above, and the resulting changes in intracellular calcium concentration were measured using FLIPR (Molecular Device).
To measure the changes in intracellular calcium concentration by FLIPR, the following pre-treatment was performed. First, an assay buffer for adding the fluorescent dye Fluo3-AM (DOJIN) to the cells, or for washing the cells just before performing the FLIPR assay, was prepared. To a solution prepared by adding 20 ml of 1M HEPES (pH 7.4) (Invitrogen) to 1000 ml of HBSS (Invitrogen) (hereinafter, HBSS/HEPES solution), 10 ml of a solution prepared by dissolving 710 mg of probenecid (Sigma) in 5 ml of 1N NaOH and then adding 5 ml of the HBSS/HEPES solution, was added and mixed, and this solution was used as the assay buffer. Next, 50 μg of Fluo3-AM was dissolved in 22 μl of DMSO (DOJIN), and an equal volume of 20% pluronic acid (Molecular Probes) was added and mixed, after which this mixture was added to 10.6 ml of the assay buffer supplemented with 105 μl of fetal bovine serum, whereby a fluorescent dye solution was prepared. […] After this pretreatment was performed, changes in intracellular calcium concentration after addition of the various test samples were measured with the FLIPR.
Compounds that activate a polypeptide consisting of the amino acid sequence shown by SEQ ID NO:2 (activators) were screened for. As an index of activation, calcium inflow in the cells was detected using a calcium-sensitive fluorescent reagent; specifically, the method described in Example 3 was used.

rat EC cells = assay: Serotonin secretion from rat small intestine EC cells; format: cell-based; settings: 45 minutes culture
Protocol: A Wistar rat (male, 8-week-old) was decapitated and exsanguinated, after which it was dissected and laparotomized with scissors, and the small intestine was extirpated. The inside of the lumen of the extirpated small intestine was washed with physiological saline, and about 20 mL of Buffer A (70 mM NaCl, 5 mM KCl, 20 mM NaHCO3, 0.5 mM NaH2PO4, 50 mM HEPES (pH 7.2), 11 mM glucose, 3 mM EDTA, 0.5% BSA, 0.05 mM dithiothreitol, 1 mg/mL N-acetyl-L-cysteine) was injected, after which both ends were closed, and the small intestine was allowed to stand in 37° C. incubated HBSS for 10 minutes. Thereafter, the Buffer A in the lumen of the small intestine was discarded, about 20 mL of Buffer A was injected again, and the small intestine was allowed to stand in 37° C. incubated HBSS for 10 minutes. Again, the Buffer A in the lumen of the small intestine was discarded, fresh Buffer A was injected, and the small intestine was allowed to stand in 37° C. incubated HBSS for 20 minutes, after which the lumen content was recovered. […]
Serotonin secretion activity in EC cells prepared by the method described in Example 9-(3) was measured by a method modified from the method of Example 14 above. […]
The serotonin content in the supernatant was measured using a commercially available serotonin immunoassay kit (Beckman). […]

[2] = test system: mouse ileum loop water secretion; assay: Mouse gut water secretion (ileum loop); format: in vivo; settings: 6 hours; for water secretion from the gut: mouse ileum loop, 10, 100, 1,000 μg
Protocol: Mice (ddy, male, 35-42 g, SLC), fasted overnight, were anesthetized with pentobarbital (50 mg/kg i.p.) and laparotomized, and ileum tissue about 2 cm in the vicinity of the cecum was ligated with a thread at both ends to prepare an ileum loop. […] After the administration, the gut was returned to the original position, and the abdominal muscle and the skin were sutured. Six hours after the treatment, each mouse was killed by cervical dislocation, after which the ileum loop was extirpated, and the content was weighed.

[3] = test system: dog digestive tract movement; assay: Dog digestive tract movement by strain gauge force transducer method
mouse constipation model = assay: Loperamide-induced mouse constipation model (bead discharge time); format: in vivo; settings: loperamide 0.3 mg/kg s.c., 0.01 to 1 mg/kg oral
Protocol: Because loperamide, a μ opioid receptor agonist, induces convulsive contraction in the gut and causes a delay of gut transportation, this experimental system is thought to be an experimental model of constipation type irritable bowel syndrome.
Mice (ddY, male, 5-week-old, SLC) were fasted from afternoon of the day before the experiment; on the day of the experiment, the mice were acclimated to the measurement cage for 1 hour or more, after which loperamide, 0.3 mg/kg, was administered subcutaneously. […] The mouse was returned to the measurement cage, and time from awakening to discharge of the glass beads was measured.

T1 sequence (O75762 whole entry R3C/R58T/K186N): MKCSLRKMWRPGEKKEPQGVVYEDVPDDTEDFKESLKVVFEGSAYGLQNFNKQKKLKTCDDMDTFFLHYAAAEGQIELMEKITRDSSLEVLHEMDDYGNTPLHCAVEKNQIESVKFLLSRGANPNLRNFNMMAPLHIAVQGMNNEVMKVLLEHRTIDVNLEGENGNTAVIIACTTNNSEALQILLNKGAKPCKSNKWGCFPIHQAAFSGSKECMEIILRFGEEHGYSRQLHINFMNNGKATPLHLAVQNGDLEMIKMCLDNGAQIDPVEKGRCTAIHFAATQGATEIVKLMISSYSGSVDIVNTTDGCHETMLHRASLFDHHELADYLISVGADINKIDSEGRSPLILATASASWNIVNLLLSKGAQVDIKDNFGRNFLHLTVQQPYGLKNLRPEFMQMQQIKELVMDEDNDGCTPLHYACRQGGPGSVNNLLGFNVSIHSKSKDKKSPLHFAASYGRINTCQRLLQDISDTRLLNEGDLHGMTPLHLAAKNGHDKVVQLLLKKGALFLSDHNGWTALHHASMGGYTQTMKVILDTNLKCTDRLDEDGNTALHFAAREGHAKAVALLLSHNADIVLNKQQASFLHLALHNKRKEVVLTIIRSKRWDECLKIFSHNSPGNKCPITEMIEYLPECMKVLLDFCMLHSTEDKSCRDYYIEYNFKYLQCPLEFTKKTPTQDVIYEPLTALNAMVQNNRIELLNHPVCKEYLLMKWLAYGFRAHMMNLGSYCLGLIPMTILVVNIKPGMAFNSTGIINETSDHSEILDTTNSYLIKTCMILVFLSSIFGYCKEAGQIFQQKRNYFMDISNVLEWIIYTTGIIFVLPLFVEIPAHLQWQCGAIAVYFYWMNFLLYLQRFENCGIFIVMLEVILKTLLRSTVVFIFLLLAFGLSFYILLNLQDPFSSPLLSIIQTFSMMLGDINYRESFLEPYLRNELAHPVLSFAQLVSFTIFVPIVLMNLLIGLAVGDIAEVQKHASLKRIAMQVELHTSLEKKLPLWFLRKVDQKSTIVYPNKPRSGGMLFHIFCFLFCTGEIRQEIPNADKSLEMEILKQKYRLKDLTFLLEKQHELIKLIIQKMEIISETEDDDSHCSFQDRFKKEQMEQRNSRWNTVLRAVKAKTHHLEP

**Q.** For `C=CCN=C=S` [allyl isothiocyanate], which EC50 (guinea pig ileum; Cavia porcellus, read-out: EC50(μM) †) is on record?
**A.** Its EC50 is 129 µM.

**Q.** And the Action (guinea pig ileum; Magnus (guinea pig ileum))?
**A.** Its Action is “Contraction”.

**Q.** And the “change in intracellular calcium concentration” value [1]?
**A.** The value was “responded specifically (elevation of intracellular calcium concentration)”.

**Q.** And the “serotonin secretion from rat EC cells” value (rat EC cells)?
**A.** Its value is “significant serotonin secretion promoting activity was observed; also recorded: promoted the release of serotonin from the EC cells”.

**Q.** And the “water secretion accentuating action, 1,000 μg dose group” value ([2]; mouse ileum loop, 1,000 μg)?
**A.** The value was “significant water secretion accentuating action observed”.

**Q.** What about the “water secretion from the gut” value [2] of the same compound?
**A.** The value was “dose-dependently accentuated water secretion from the gut”.

**Q.** And the “water secretion from the gut” value ([2]; listed as Allyl isothiocyanate)?
**A.** The value was “concentration-dependently accentuated water secretion compared to the vehicle control”.

**Q.** What about the “induction of GMC” value ([3]; oral) of the same compound?
**A.** Its value is “induced GMC”.

**Q.** What about the “time after administration to induction of colon GMC (Giant migrating contraction)” value ([3]; oral, 1, 10 mg/kg) of the same compound?
**A.** Its value is no more than 10 min.

**Q.** What about the stomach movement ([3]; oral, just after administration) of the same compound?
**A.** The stomach movement was “accentuated stomach movement just after administration”.

**Q.** And the bead discharge time (mouse constipation model)?
**A.** The bead discharge time was “dose-dependently ameliorated the delay of bead discharge time by loperamide; also recorded: concentration-dependently shortened bead discharge time compared to the vehicle control”.
